Test results taken from publication PMC11946679 (Toxics, 2025).

Test system: human peripheral blood lymphocytes
Experiment: CBMN cytome assay: micronuclei, nuclear buds, nucleoplasmic bridges
Conditions: 3 h
[1] = 5× + IRI 9.0 mg/L, propolis 6.8 mg/L, galangin […]
[2] = 5× alone, propolis 6.8 mg/L, galangin […]
[3] = 10× + IRI 9.0 mg/L, propolis 13.6 mg/L, galangin 0.22 mg/L
[4] = 10× alone, propolis 13.6 mg/L, galangin 0.22 mg/L

Method: The CBMN assay was performed in line with standard protocols [8, 23].
To collect the blood sample, lithium heparin-coated tubes were used (BD vacutainer® with LH 170 I.U., Becton Dickinson: BD-Plymouth PL6 78P, UK).
There were 15 experimental groups altogether. The same experimental design was applied in two independent trials, each of which had two replicate cultures per experimental group; therefore, four replicate cultures for every single experimental group were established.
To induce cell division prior to exposure to the test chemicals, lymphocytes were stimulated with the mitogen phytohemagglutinin (PHA). Cultures were kept in a humidified atmosphere of 5% CO2 at 37 °C.
They started 41 h after PHA stimulation and lasted for 3 h at 37 °C.
Upon completion of exposure, lymphocyte cultures were centrifuged at 100× g. […] This procedure was timed for the 44th hour of lymphocyte cultivation, which represents a critical point for adding of cytoB to hinder cytokinesis and obtain binucleated cells. All treated and control cultures were further maintained at 37 °C until the end of the 72nd hour of cultivation, according to the above-mentioned standard protocols.
The first step in the preparation of microscopic slides was harvesting of cells by centrifugation (100× g), followed by treatment with 0.075 mol/L potassium chloride and succeeded by centrifugation. The sediments of cells were repeatedly fixed with methanol/acetic acid (3:1 v/v) followed by centrifugation. The final lymphocyte suspension was pipetted onto clean microscope slides. For staining, 5% aqueous solution of Giemsa dye was used. Slides were screened using a light microscope at 1000× magnification. For morphological discrimination of micronuclei (MNi), nuclear buds (NBs), nucleoplasmic bridges (NPBs) and cells in apoptosis or necrosis, the criteria by Fenech et al. [25] and Fenech [23] were applied. To determine their frequencies, per experimental point, a total of 4 × 1000 binucleated (BN) cells were scored.
This value was first used to estimate the number of MNi required to reach a decrease and an increase considered significant at a 5% significance level.

O=c1c(O)c(-c2ccccc2)oc2cc(O)cc(O)c12 [Galangin]
Distribution of BNMN Cells with 3 MN [1]: 0
Distribution of BNMN Cells with 4 MN [1]: 0
Distribution of BNNB Cells with 1 NB [1]: 32 c,p1,p5, p10,g1, g5,g10, p1+iri, p10+iri
Distribution of BNNB Cells with 2 NB [1]: 0
Distribution of BNNPB Cells with 1 NPB [1]: 0
Distribution of BNNPB Cells with 2 NPB [1]: 0
Micronuclei (MNi) Mean (BNMN)1000 ± SD [1]: 11.00 ± 0.82 c,p1,p5,p10,g1,g5, g10,p1+iri, p5+iri
Micronuclei (MNi) Mean (MNi)1000 ± SD [1]: 11.25 ± 0.96 c,p1,p5,p10,g1,g5,g10, p1+iri
Micronuclei (MNi) Total (BNMN)4000 [1]: 44 c,p1,p5,p10,g1,g5,g10, p1+iri, p5+iri
Micronuclei (MNi) Total (MNi)4000 [1]: 45 c,p1,p5,p10,g1,g5, g10,p1+iri
Nuclear Buds (NBs) Mean (BNNB)1000 ± SD [1]: 8.00 ± 1.41 c,p1,p5,p10, g1,g5,g10, p1+iri,p10+iri
Nuclear Buds (NBs) Mean (NBs)1000 ± SD [1]: 8.00 ± 1.41 c,p1,p5,p10,g1,g5,g10, p1+iri,p10+iri
Nuclear Buds (NBs) Total (BNNB)4000 [1]: 32 c,p1,p5,p10, g1,g5,g10, p1+iri, p10+iri
Nuclear Buds (NBs) Total (NBs)4000 [1]: 32 c,p1,p5, p10,g1,g5, g10, p1+iri, p10+iri
Nucleoplasmic Bridges (NPBs) Mean (BNNPB)1000 ± SD [1]: 0
Nucleoplasmic Bridges (NPBs) Mean (NPBs)1000 ± SD [1]: 0
Nucleoplasmic Bridges (NPBs) Total (BNNPB)4000 [1]: 0
Nucleoplasmic Bridges (NPBs) Total (NPBs)4000 [1]: 0
Micronuclei (MNi) Mean (MNi)1000 ± SD (5× + IRI 9.0 mg/L, propolis 6.8 mg/L, galangin […], listed as galangin): 11.25
Distribution of BNMN Cells with 1 MN [2]: 9
Distribution of BNMN Cells with 2 MN [2]: 0
Distribution of BNMN Cells with 3 MN [2]: 0
Distribution of BNMN Cells with 4 MN [2]: 0
Distribution of BNNB Cells with 1 NB [2]: 9
Distribution of BNNB Cells with 2 NB [2]: 0
Distribution of BNNPB Cells with 1 NPB [2]: 0
Distribution of BNNPB Cells with 2 NPB [2]: 0
Micronuclei (MNi) Mean (BNMN)1000 ± SD [2]: 2.25 ± 0.50
Micronuclei (MNi) Mean (MNi)1000 ± SD [2]: 2.25 ± 0.50
Micronuclei (MNi) Total (BNMN)4000 [2]: 9
Micronuclei (MNi) Total (MNi)4000 [2]: 9
Nuclear Buds (NBs) Mean (BNNB)1000 ± SD [2]: 2.25 ± 0.96
Nuclear Buds (NBs) Mean (NBs)1000 ± SD [2]: 2.25 ± 0.96
Nuclear Buds (NBs) Total (BNNB)4000 [2]: 9
Nuclear Buds (NBs) Total (NBs)4000 [2]: 9
Nucleoplasmic Bridges (NPBs) Mean (BNNPB)1000 ± SD [2]: 0
Nucleoplasmic Bridges (NPBs) Mean (NPBs)1000 ± SD [2]: 0
Nucleoplasmic Bridges (NPBs) Total (BNNPB)4000 [2]: 0
Nucleoplasmic Bridges (NPBs) Total (NPBs)4000 [2]: 0
Micronuclei (MNi) Mean (MNi)1000 ± SD (5× alone, propolis 6.8 mg/L, galangin […], listed as galangin): 2.25
Distribution of BNMN Cells with 1 MN [3]: 44 c,p1,p5, p10,g1,g5, g10,p1+iri, p5+iri, p10+iri
Distribution of BNMN Cells with 2 MN [3]: 5
Distribution of BNMN Cells with 3 MN [3]: 0
Distribution of BNMN Cells with 4 MN [3]: 0
Distribution of BNNB Cells with 1 NB [3]: 30 c,p1,p5, p10,g1,g5,g10, p1+iri
Distribution of BNNB Cells with 2 NB [3]: 0
Distribution of BNNPB Cells with 1 NPB [3]: 0
Distribution of BNNPB Cells with 2 NPB [3]: 0
Micronuclei (MNi) Mean (BNMN)1000 ± SD [3]: 12.25 ± 0.82 c,p1,p5,p10,g1,g5, g10,p1+iri, p5+iri, p10+iri
Micronuclei (MNi) Mean (MNi)1000 ± SD [3]: 13.50 ± 1.29 c,p1,p5,p10,g1,g5,g10, p1+iri, p5+iri, p10+iri
Micronuclei (MNi) Total (BNMN)4000 [3]: 49 c,p1,p5,p10,g1,g5,g10, p1+iri, p5+iri, p10+iri
Micronuclei (MNi) Total (MNi)4000 [3]: 54 c,p1,p5,p10,g1,g5, g10,p1+iri, p5+iri, p10+iri
Nuclear Buds (NBs) Mean (BNNB)1000 ± SD [3]: 7.50 ± 1.29 c,p1,p5,p10, g1,g5,g10, p1+iri
Nuclear Buds (NBs) Mean (NBs)1000 ± SD [3]: 7.50 ± 1.29 c,p1,p5,p10,g1,g5,g10,p1+iri
Nuclear Buds (NBs) Total (BNNB)4000 [3]: 30 c,p1,p5,p10, g1,g5,g10, p1+iri
Nuclear Buds (NBs) Total (NBs)4000 [3]: 30 c,p1,p5, p10,g1,g5, g10,p1+iri
Nucleoplasmic Bridges (NPBs) Mean (BNNPB)1000 ± SD [3]: 0
Nucleoplasmic Bridges (NPBs) Mean (NPBs)1000 ± SD [3]: 0
Nucleoplasmic Bridges (NPBs) Total (BNNPB)4000 [3]: 0
Nucleoplasmic Bridges (NPBs) Total (NPBs)4000 [3]: 0
Micronuclei (MNi) Mean (MNi)1000 ± SD (10× + IRI 9.0 mg/L, propolis 13.6 mg/L, galangin 0.22 mg/L, listed as galangin): 13.50
Distribution of BNMN Cells with 1 MN [4]: 7
Distribution of BNMN Cells with 2 MN [4]: 0
Distribution of BNMN Cells with 3 MN [4]: 0
Distribution of BNMN Cells with 4 MN [4]: 0
Distribution of BNNB Cells with 1 NB [4]: 9
Distribution of BNNB Cells with 2 NB [4]: 0
Distribution of BNNPB Cells with 1 NPB [4]: 0
Distribution of BNNPB Cells with 2 NPB [4]: 0
Micronuclei (MNi) Mean (BNMN)1000 ± SD [4]: 1.75 ± 0.50
Micronuclei (MNi) Mean (MNi)1000 ± SD [4]: 1.75 ± 0.50
Micronuclei (MNi) Total (BNMN)4000 [4]: 7
Micronuclei (MNi) Total (MNi)4000 [4]: 7
Nuclear Buds (NBs) Mean (BNNB)1000 ± SD [4]: 2.25 ± 0.50
Nuclear Buds (NBs) Mean (NBs)1000 ± SD [4]: 2.25 ± 0.50
Nuclear Buds (NBs) Total (BNNB)4000 [4]: 9
Nuclear Buds (NBs) Total (NBs)4000 [4]: 9
Nucleoplasmic Bridges (NPBs) Mean (BNNPB)1000 ± SD [4]: 0
Nucleoplasmic Bridges (NPBs) Mean (NPBs)1000 ± SD [4]: 0
Nucleoplasmic Bridges (NPBs) Total (BNNPB)4000 [4]: 0
Nucleoplasmic Bridges (NPBs) Total (NPBs)4000 [4]: 0
Micronuclei (MNi) Mean (MNi)1000 ± SD (10× alone, propolis 13.6 mg/L, galangin 0.22 mg/L, listed as galangin): 1.75
